Patent US20080124366A1, “Methods and Compositions for Treating Tumors” (priority 2006, published 2008)
Entries after “also recorded” stand apart in the source; their conditions may differ.

B1: INF-gamma: interferon-gamma in which cancer stem cells were incubated (protein, UniProt P01579 24-161, looked up)
Interferon gamma: QDPYVKEAENLKKYFNAGHSDVADNGTLFLGILKNWKEESDRKIMQSQIVSFYFKLFKNFKDDQSIQKSVETIKEDMNVKFFNSNKKKRDDFEKLTNYSVTDLNVQRKAIHELIQVMAELSPAAKTGKRKRSQMLFRG

How the values were obtained:
[1] = test system: cervical lymph node T cells and DCs; assay: Flow cytometry of draining cervical lymph nodes after s.c. vaccination; format: in vivo, C57BL/6 mice; conditions: vs lysate or normal
Procedure: Flow cytometry. Normal B6 mice were vaccinated two times, one week apart with CpG/lysate, CpG, lysate, or were not vaccinated as the controls (n=4/group). Six days after the last vaccination, the left and right cervical lymph nodes of each mouse were harvested, counted for LN cell numbers, and analyzed by flow cytometry with various monoclonal antibodies (1 μg/10^6 cells) including FITC-anti-CD3, PE-anti-CD8, APC-anti-CD4, FITC-anti-CD1 1c, PE-anti-CCR7, and APC-anti-CD86 (eBioscience, San Diego, Calif.).
The ability of CpG ODN to activate and mature DCs to elicit T cell-mediated responses has been established. An experiment was conducted to characterize the effects of CpG/lysate vaccination on DCs and T cells in the draining lymph nodes. Normal B6 mice were vaccinated two times, one week apart, by subcutaneous (s.c.) injection with CpG ODN, tumor lysate, or CpG/lysate (n=4/group). Six days after the second vaccination, the draining cervical lymph nodes of each mouse were harvested, counted for total cell number, and analyzed by flow cytometry.

[2] = test system: intracranial GL261-Luc glioma; assay: s.c. vaccination of mice bearing intracranial GL261-Luc glioma, bioluminescent imaging and survival (Example 5); format: in vivo, C57BL/6 mice; conditions: s.c. days 4, 11, 18
Procedure: Glioma model and in vivo imaging. Six to seven week old female C57BL/6 mice were purchased from Jackson Laboratory and maintained in a specific pathogen free (SPF) facility according to the guidelines of the University of Minnesota Animal Care and Use Committee (IACUC). For intracranial tumor inoculations, animals were deeply anesthetized with a ketamine/xylazine cocktail solution (53.7 mg/ml ketamine, 9.26 mg/ml xylazine) delivered at 1 ml/kg. 10,000 GL261-Luc cells in 1 μl of PBS were implanted stereotactically into the right striatum; coordinates were 2.2 mm lateral, and 0.5 mm posterior of bregma, and 3 mm ventral from the cortical surface of the brain. For imaging mice were deeply anesthetized by i.p. injection with avertin (225 mg/kg) and injected with 100 μl of luciferin (substrate for luciferase enzyme; 28.5 mg/ml, Xenogen®, Hopkinton, Mass.). Mice were imaged five minutes after luciferin injection using the Ivis 50 system (Xenogen®). […] Luciferase activity was analyzed using living image software (version 2.5; Xenogen®) according to the manufacturer's instructions. […]
Statistical analysis. […] Differences in animal survival between treatment groups were evaluated by log-rank statistical analysis with Sigmastat software (Systat Software, Inc. San Jose, Calif.); only P values <0.05 were considered significant.

[3] = test system: GL261 mouse glioma model; assay: Intratumoral CpG ODN administration in GL261 mouse glioma model; format: in vivo; conditions: weakly immunogenic GL261 / GL261-Luc model
[4] = test system: Human brain tumor stem cells; assay: Incubation of human brain tumor stem cells in INF-gamma; format: cell-based

Molecule | number of activated (CD11c+CD86+/CCR7+) DCs in draining lymph nodes [1] | effect on tumor growth or survival [2] | efficacy of intratumoral administration [3] | immunogenicity of cancer stem cells after incubation [4]
5′-TCGTCGTTTTGTCGTTTTGTCGTT-3′ [CpG ODN] | significant increase | no effect | not effective; also recorded: failed to cause sustained tumor regression | –
B1 | – | – | – | restores their immunogenecity
